From patent US20040220260A1, “Use of mono-or di-esters of cinnamic acid or of one of its derivatives and vitamin C, as donor of NO” (L'OREAL S.A., priority 2003, published 2004)

Tests used:
[1] = target: T1, inducible NO synthase (NOS2) (Homo sapiens, UniProt P35228); experiment: screening test of the modulation of induction of NOS2 by normal human keratinocytes (nitrite/nitrate measurement); assay type: cell-based; conditions: for % inhibition: normal human keratinocytes, NOS2 induced by cytokines, nitrites and nitrates measured
T1 construct: endogenous in cells; host or cells: normal human keratinocytes (primary culture), induced with interferon-γ and interleukin 1-β
Procedure: The activity of ascorbyl 2-O-cinnamate on the inducible NO synthase was evaluated in the assay described by Heck et al. (J.B.C., vol. 267, No. 30, 21277-21280, 25 Oct. 1992), a screening test of the modulation of induction of NOS2 by normal human keratinocytes. The objective of this test is, briefly, to evaluate the concentration of nitrate and nitrite after stimulation of the NO-synthase 2.
The test is carried out on a culture of normal human keratinocytes, derived from samples taken. The induction of the inducible NO synthase (NOS2) was caused by the addition of a combination of several cytokines to the culture medium. The product tested was applied at three concentrations varying from […] to 1000 μM.
The product tested was classed in one of the following two categories: inhibitor (I) or donor (D) of NO (nitric oxide) according to its capacity to diminish or increase, respectively, the quantity of nitrites and nitrates produced compared to the control signal […].
The following controls were introduced in the test:
A: positive control (induction of the enzyme): mixtures of interferon-γ (1000 u/ml) and interleukin 1-β (100 u/ml)
In order to determine the activity of the test product the quantity of stable NO reaction products (nitrites and nitrates) is measured with the aid of the “nitric calorimetric assay” kit sold by the Boehringer company under catalogue number 1756.28.
Ascorbyl 2-O-cinnamate was tested at concentrations of 100 μM, 500 μM and 1000 μM in ethanol

[2] = test system: normal human keratinocytes; experiment: cytotoxicity (% diminution of the signal compared with the control); assay type: cell-based; conditions: % diminution of signal vs control; not very cytotoxic 0-20%, acceptable up to 40%, not retained >40%
Source text: Moreover, the cytotoxicity was expressed as % diminution of the signal compared with the control. A product was considered to be not very cytotoxic from 0-20%, acceptable up to 40% and not retained for values >40%.

T1 sequence (P35228 whole entry): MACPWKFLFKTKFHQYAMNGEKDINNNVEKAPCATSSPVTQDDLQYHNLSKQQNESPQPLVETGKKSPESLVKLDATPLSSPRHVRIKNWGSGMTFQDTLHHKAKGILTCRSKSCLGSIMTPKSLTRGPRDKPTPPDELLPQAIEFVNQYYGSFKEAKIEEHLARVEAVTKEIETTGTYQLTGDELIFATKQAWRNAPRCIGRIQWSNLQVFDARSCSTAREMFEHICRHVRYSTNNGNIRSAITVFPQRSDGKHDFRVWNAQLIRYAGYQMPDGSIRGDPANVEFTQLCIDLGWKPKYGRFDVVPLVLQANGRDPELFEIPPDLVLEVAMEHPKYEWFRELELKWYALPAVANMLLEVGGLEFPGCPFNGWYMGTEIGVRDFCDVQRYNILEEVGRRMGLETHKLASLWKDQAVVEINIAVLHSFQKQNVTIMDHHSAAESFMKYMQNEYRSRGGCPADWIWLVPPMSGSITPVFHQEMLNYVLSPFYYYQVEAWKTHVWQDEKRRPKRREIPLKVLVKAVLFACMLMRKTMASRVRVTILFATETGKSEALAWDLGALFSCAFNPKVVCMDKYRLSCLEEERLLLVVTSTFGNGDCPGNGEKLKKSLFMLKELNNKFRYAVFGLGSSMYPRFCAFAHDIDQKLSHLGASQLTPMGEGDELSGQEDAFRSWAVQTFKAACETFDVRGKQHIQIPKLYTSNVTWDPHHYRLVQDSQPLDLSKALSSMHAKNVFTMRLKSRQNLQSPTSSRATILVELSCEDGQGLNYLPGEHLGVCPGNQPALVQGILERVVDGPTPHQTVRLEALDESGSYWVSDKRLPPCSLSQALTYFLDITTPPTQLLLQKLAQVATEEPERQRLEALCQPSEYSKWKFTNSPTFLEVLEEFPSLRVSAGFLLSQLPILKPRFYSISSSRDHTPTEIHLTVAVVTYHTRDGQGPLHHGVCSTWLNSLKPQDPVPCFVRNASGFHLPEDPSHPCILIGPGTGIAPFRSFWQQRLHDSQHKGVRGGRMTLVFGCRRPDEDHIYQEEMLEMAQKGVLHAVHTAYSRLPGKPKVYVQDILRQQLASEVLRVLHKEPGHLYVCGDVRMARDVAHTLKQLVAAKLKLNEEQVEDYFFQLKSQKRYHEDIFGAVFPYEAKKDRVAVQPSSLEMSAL

- % inhibition ([1]; 100 μM in ethanol): 24.79%
- % inhibition ([1]; 500 μM in ethanol): 53.74%
- % inhibition ([1]; 1000 μM in ethanol): 74.4%
- classification as inhibitor (I) or donor (D) of NO ([1]; according to capacity to diminish or increase the quantity of nitrites and nitrates produced compared to the control signal): NO donor effect
SMILES: O=C(/C=C/c1ccccc1)OC1=C(O)[C@@H]([C@@H](O)CO)OC1=O [Ascorbyl 2-O-cinnamate, ascorbyl 2-O-cinnamate]
- cytotoxicity [2]: not toxic
